Values quoted from earlier work, collected in US20240358791A1, “PEPTIDES AND METHODS OF TREATING DYSTROPHY-RELATED DISORDERS USING THE SAME” (Prince Biotech, LLC, priority 2017, published 2024).

Settings: IV infusion with radiation; xerostomia treatment (Kouvaria et al 2007)

Which side effects does the source give for `NCCCNCCSP(=O)(O)O` [Amifostine] here?
The side effects was “serious side effects including fatal skin reaction”.
